System: AML-12 hepatocytes
Assay: AML-12 hepatocytes: p21, Pah immunoblot and tyrosine production
Format: cell-based
Experimental: Cells were washed briefly with ice-cold 1×PBS, scraped in 400 μL T-PER lysis buffer (ThermoFisher) supplemented with 0.1 mM phenylmethylsulphonyl fluoride (PMSF) and protease/phosphatase inhibitor cocktail tablet (ThermoFisher). Pulverised tissue samples (20-30 mg) were lysed in the same buffer accelerated by sonication and passing through a 21 G needle. To pellet any debris, lysates were centrifuged at 10,000 g for 10 minutes at 4° C., with the supernatant transferred to fresh tubes. Protein concentrations were determined with Bradford assay (Biorad) and lysates were diluted to equal concentration with lysis buffer. Protein lysates were then mixed with Laemmli buffer, vortexed and heated to 95° C. for 5 min. Equal amounts of protein lysates in parallel with protein molecular weight marker (ThermoFisher) were loaded onto pre-cast polyacrylamide gels (Nupage 10 or 12% Bis Tris gel, Novex, Invitrogen) and separated by electrophoresis at 200V for 1 hour. Proteins were transferred onto polyvinylidene difluoride (PVDF) membrane (Invitrogen) using an electrophoretic transfer cell (Mini Trans-Blot, Bio-Rad) in ice-cold transfer buffer (48 mM Tris base, […], 0.1% SDS, 20% methanol (v/v)) at 300 mA for 2 hours. Membranes were blocked in 1× skimmed milk (ThermoFisher) for 1 hour at room temperature, followed by overnight incubation with primary antibody diluted in blocking buffer at 4° C. Next day membranes were washed, followed by 60 minutes incubation in the corresponding horseradish peroxidase (HRP)-conjugated secondary antibody diluted 1:2000-10000 in blocking buffer (all Abcam). Blots were developed using enhanced chemiluminescence (ECL) reagents (normal, Prime & Select) and digital images were acquired using an imaging system (Azure Biosystems). Membranes were usually stripped of antibodies and reprobed with an antibody targeting a protein serving as loading control (α-actinin for hearts & β-actin for all others). For this procedure, membranes were placed in Guanidine-HCl-based stripping solution (6M Guanidine-HCl, 0.2% Nonidet P-40, 0.1M β-mercaptoethanol, 20 mM Tris-HCl, pH 7.5 and 100 mM 2-mercaptoethanol) and incubated for 10 minutes at room temperature with gentle agitation, followed by extensive washing and re-blocking.^5
AML12 cells (ATCC® CRL-2254™) were maintained in DMEM/F-12 (1:1) culture media supplemented with 10% FBS, 10 μg/ml insulin, 5.5 μg/ml transferrin, 5 ng/ml selenium, 40 ng/ml dexamethasone and 1% penicillin/streptomycin. Cells were sub-cultivated from subconfluent flasks with a ratio from 1:4 to 1:8. For WB analysis, cells were plated on 6-well plates and harvested at 80-90% of confluence. AML12 cells were transfected with indicated siRNA (Table 2) at 80% confluence using Lipofectamine RNAiMAX Transfection Reagent (ThermoFischer Scientific 13778030) following the manufacturer's instructions. Transfection efficiency was constantly checked using BLOCK-IT Alexa Fluor Red Fluorescent Control (ThermoFischer Scientific 14750100).
Levels of reduced glutathione (GSH; ThermoFisher), phenylalanine (BioVision) and tyrosine (BioVision) were determined from cells or plasma, with respective agents/kits following the manufacturer's recommendations. Specifically, GSH levels were estimated with the aid of ThiolTracker™ Violet fluorescent probe (ThermoFisher). Plasma and liver phenylalanine levels were determined using an enzyme-coupled, fluorometric method (BioVision). Briefly, samples were deproteinized via trichloroacetate precipitation, neutralised, tyrosinase-treated (to remove tyrosine that may interfere) and diluted to fit in the standard curve. Fluorescence reading took place at 587 nm after excitation at 535 nm. Levels of tyrosine in cells or conditioned media were determined after deproteinization using 10 kDa cut-off columns with an enzyme-coupled, colorimetric method with reading at 491 nm (BioVision).

CC(O)C(O)C1CNc2nc(N)[nH]c(=O)c2N1 (stereo not drawn) [BH4, 2-amino-6-(1,2-dihydroxypropyl)-5,6,7,8-tetrahydro-3H-pteridin-4-one]
Pah levels under Nutlin3a-induced senescence (Nutlin3a plus co-treatment, FIG. 4o, 4r): derepressed
tyrosine production / levels under Nutlin3a-induced senescence (Nutlin3a plus co-treatment, FIG. 4p, 4q): derepressed

N[C@@H](Cc1ccccc1)C(=O)O [PA, (S)-2-Amino-3-phenylpropanoic acid]
p21 protein (increasing concentrations of PA (0-10 mM), FIG. 4n): dose-dependent induction

— patent US20220268782A1, “METHODS FOR PREDICTING AND TREATING CARDIAC DYSFUNCTION” (INSERM (INSTITUT NATIONAL DE LA SANTÉ EAT DE LA RECHERCHE …, priority 2019, published 2022)
